Results taken from ChEMBL document CHEMBL5465560, “Selectivity Literature for EUbOPEN Chemogenomic Library” (2024).

Legend:
[1] = target: T1, Serine/threonine-protein kinase PLK4 (Homo sapiens) (UniProt O00444); conditions: at 10 µM
T1 sequence (whole entry): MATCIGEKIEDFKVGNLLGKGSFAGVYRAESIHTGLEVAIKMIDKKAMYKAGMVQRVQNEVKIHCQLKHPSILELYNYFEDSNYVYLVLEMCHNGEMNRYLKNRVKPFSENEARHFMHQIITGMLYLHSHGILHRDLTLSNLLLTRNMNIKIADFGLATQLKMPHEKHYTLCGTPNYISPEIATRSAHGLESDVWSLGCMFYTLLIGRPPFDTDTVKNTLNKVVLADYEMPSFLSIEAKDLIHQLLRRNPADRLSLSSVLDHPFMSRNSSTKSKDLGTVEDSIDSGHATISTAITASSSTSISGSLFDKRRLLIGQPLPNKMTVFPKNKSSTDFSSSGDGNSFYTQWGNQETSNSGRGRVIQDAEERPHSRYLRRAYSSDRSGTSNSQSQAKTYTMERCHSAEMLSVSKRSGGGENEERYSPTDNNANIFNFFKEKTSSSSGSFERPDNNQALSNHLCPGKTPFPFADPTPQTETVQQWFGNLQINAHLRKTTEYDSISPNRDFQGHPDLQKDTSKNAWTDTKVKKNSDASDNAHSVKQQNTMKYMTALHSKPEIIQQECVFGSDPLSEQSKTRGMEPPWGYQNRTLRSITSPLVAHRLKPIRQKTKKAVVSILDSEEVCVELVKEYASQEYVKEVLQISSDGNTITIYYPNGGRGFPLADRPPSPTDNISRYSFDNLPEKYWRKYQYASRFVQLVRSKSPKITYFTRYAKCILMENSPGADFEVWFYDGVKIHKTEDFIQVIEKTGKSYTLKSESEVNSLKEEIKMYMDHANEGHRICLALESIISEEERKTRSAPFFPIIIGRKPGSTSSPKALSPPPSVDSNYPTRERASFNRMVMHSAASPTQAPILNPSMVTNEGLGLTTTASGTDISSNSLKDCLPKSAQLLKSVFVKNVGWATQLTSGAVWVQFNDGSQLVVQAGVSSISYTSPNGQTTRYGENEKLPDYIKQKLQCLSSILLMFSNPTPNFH

[2] = target: T2, Tyrosine-protein kinase JAK3 (Homo sapiens) (UniProt P52333); test: Selectivity interaction (KinomeScan (DiscoverX)) EUB0000092b JAK3; conditions: at 10 µM
T2 sequence (whole entry): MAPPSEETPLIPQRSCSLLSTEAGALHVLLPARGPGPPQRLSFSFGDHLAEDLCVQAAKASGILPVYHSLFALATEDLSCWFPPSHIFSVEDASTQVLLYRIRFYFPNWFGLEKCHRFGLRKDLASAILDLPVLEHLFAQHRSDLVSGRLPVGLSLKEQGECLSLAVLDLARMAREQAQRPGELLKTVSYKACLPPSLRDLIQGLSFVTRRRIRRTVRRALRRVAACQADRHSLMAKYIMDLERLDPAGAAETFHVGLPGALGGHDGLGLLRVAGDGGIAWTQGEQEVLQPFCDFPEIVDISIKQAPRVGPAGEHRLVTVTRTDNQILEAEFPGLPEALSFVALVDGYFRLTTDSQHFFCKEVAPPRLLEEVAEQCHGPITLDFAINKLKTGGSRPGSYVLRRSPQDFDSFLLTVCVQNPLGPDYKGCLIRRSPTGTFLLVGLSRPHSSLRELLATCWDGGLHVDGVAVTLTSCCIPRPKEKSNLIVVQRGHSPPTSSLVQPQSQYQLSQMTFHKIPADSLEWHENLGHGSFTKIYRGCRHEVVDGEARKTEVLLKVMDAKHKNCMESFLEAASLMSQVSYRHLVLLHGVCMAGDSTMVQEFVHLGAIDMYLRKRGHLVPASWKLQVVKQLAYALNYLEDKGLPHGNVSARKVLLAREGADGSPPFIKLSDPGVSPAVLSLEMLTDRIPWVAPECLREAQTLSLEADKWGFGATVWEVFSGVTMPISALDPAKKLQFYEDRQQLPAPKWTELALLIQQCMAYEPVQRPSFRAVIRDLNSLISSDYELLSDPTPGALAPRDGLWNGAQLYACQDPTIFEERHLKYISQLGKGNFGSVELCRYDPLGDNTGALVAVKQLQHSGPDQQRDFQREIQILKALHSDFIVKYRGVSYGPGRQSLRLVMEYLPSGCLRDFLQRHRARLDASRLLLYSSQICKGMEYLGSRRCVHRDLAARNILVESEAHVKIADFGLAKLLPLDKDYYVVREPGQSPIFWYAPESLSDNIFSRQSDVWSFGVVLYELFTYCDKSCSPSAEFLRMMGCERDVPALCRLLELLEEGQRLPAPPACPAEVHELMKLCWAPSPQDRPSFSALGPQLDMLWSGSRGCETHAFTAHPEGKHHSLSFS

[3] = target: Tyrosine-protein kinase Fes/Fps (Homo sapiens) (UniProt P07332); test: Selectivity interaction (KinomeScan (DiscoverX)) EUB0000092b FES; conditions: at 10 µM
Sequence of Tyrosine-protein kinase Fes/Fps (Homo sapiens) (P07332 whole entry): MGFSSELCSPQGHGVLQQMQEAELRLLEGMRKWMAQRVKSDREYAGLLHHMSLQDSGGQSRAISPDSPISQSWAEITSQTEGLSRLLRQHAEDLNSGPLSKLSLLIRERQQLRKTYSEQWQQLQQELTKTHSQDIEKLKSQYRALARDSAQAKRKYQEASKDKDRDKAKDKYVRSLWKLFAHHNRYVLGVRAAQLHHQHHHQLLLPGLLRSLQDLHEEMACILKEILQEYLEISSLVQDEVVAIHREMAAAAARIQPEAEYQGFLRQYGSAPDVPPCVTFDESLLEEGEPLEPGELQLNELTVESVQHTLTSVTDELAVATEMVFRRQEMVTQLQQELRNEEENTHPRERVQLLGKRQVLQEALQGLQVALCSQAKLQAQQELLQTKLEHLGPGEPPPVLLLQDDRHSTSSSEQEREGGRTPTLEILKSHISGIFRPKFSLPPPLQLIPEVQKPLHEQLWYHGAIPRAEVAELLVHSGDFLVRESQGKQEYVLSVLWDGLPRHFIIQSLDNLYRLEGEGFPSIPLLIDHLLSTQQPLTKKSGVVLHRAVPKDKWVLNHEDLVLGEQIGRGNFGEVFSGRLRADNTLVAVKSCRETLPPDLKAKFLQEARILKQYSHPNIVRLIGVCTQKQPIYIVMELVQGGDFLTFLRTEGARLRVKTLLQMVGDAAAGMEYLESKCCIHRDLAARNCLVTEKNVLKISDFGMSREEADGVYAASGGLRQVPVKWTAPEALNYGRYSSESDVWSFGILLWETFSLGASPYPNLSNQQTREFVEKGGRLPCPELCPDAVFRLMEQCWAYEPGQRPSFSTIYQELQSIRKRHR

[4] = target: Receptor-interacting serine/threonine-protein kinase 2 (Homo sapiens, UniProt O43353); test: Selectivity interaction (KinomeScan (DiscoverX)) EUB0000045b RIPK2
Sequence of Receptor-interacting serine/threonine-protein kinase 2 (O43353 whole entry): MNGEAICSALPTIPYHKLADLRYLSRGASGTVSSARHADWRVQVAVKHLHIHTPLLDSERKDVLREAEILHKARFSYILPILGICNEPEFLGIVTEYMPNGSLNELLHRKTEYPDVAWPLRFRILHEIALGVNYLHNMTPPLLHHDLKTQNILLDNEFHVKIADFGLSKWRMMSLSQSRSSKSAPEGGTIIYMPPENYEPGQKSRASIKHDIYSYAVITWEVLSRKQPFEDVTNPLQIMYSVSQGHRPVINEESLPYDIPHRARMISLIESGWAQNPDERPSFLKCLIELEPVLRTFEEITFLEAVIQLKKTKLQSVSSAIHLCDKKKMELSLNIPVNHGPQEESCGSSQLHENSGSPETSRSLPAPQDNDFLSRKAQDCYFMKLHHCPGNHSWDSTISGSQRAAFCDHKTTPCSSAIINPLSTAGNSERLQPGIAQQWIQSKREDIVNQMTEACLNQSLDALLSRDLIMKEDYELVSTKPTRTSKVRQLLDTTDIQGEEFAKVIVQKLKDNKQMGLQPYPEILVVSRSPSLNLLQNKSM

[5] = target: Serine/threonine-protein kinase 38 (Homo sapiens) (UniProt Q15208); test: Selectivity interaction (KinomeScan (DiscoverX)) EUB0000655a STK38; conditions: at 10 µM
Sequence of Serine/threonine-protein kinase 38 (Homo sapiens) (Q15208 2-465 limits assumed): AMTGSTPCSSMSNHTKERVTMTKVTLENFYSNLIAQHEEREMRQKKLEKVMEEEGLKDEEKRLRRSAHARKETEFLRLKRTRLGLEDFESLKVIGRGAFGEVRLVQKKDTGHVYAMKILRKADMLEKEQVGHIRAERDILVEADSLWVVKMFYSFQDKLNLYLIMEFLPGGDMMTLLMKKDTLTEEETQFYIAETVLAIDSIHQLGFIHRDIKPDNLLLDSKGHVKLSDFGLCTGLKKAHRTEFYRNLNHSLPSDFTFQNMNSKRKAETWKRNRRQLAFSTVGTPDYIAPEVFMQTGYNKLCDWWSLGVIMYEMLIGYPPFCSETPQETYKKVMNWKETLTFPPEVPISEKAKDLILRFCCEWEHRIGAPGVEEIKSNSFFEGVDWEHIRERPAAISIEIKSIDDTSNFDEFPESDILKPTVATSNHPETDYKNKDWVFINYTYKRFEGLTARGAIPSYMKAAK

[6] = target: T3, Serine/threonine-protein kinase STK11 (Homo sapiens) (UniProt Q15831); test: Selectivity interaction (ActivX KiNativ screen (ex vivo kinase selectivity in human PBMCs)) EUB0001619a STK11; type: cell-based; conditions: PBMC, at 1 µM
T3 sequence (whole entry): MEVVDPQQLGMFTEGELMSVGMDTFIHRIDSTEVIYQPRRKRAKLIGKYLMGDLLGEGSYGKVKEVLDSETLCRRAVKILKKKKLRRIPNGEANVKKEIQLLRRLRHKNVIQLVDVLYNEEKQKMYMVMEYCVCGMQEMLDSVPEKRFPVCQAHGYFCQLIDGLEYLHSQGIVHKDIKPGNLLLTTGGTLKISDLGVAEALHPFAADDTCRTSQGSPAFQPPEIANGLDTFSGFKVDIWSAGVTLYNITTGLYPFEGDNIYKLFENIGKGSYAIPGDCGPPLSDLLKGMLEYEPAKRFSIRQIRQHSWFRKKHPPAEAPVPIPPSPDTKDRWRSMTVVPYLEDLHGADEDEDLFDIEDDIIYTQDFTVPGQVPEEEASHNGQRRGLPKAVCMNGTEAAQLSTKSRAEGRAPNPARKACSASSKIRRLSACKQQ

Cc1cc([C@@H](C)Nc2ccccc2C(=O)O)c2nc(N3CCOCC3)cc(=O)n2c1 [AZD-6482]
% of control [1]: 100%

CCC(=O)N1CCN(c2ccc(-n3c(=O)ccc4cnc5ccc(-c6cnc7ccccc7c6)cc5c43)cc2C(F)(F)F)CC1
% of control [2]: 100%
% of control [3]: 41%

C=CC(=O)Nc1cc(-n2c(=O)ccc3cnc4ccc(-c5ccc(NS(C)(=O)=O)cc5)cc4c32)ccc1C
% of control ([4]; at 1 µM): 100%
% of control ([4]; at 10 µM): 92%

CN(C)CCOc1ccc(-c2nc(-c3ccncc3)c(-c3ccc4c(c3)CC/C4=N\O)[nH]2)cc1
% of control [5]: 90%

N#Cc1cccc(-c2c[nH]c3ncnc(N4CCOCC4)c23)c1
% of inhibition [6]: 17%
